Drawing on US20040156869A1, “2-substituted quinazolin-4-ylamine analogues” (Neurogen Corporation, priority 2002, published 2004), this text covers Ki for 30 molecules.

Chain of human capsaicin receptor (VR1) (Q8NER1 whole entry): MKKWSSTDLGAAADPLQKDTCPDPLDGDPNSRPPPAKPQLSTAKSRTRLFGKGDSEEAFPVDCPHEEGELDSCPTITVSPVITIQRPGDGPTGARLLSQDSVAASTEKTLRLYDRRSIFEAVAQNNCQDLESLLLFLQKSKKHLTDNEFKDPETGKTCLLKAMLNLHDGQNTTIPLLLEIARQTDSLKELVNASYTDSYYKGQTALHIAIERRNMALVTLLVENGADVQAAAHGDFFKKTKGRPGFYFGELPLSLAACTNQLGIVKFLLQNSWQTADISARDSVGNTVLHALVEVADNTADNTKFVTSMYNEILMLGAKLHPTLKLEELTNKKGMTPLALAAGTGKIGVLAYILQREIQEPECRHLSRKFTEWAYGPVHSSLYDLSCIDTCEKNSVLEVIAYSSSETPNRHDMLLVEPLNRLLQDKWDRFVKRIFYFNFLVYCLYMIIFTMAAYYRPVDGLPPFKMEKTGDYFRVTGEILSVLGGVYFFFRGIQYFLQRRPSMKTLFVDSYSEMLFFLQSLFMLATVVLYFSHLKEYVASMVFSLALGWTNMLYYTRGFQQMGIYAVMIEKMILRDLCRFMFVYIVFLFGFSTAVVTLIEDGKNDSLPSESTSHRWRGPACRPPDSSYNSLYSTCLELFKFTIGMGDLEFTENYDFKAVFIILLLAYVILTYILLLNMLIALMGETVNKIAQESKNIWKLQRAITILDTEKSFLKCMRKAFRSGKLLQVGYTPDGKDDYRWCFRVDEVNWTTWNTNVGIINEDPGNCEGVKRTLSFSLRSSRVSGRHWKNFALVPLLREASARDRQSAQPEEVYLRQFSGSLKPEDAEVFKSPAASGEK

The experiment addresses human capsaicin receptor (VR1) (Homo sapiens, UniProt Q8NER1). Put plainly: Capsaicin receptor binding assay ([3H]RTX competition, VR1-transfected HEK293 membranes).
In turn, `CCc1ccc(Nc2nc(CN3CC(C)O[C@H](C)C3)nc3cc(-c4ncccc4C(F)(F)F)ccc23)cc1` (stereo in doubt) [Compound 653, (R,R)-[2-(2,6-Dimethyl-morpholin-4-ylmethyl)-7-(3-trifluoromethyl-pyridin-2-yl)-quinazolin-4-yl]-(4-ethyl-phenyl)-amine] showed a Ki below 1 µM.
The molecule `CC(C)(C)c1ccc(Nc2nc(CN3C[C@@H](O)C[C@@H]3C(=O)O)nc3cc(-c4ncccc4C(F)(F)F)ccc23)cc1` (stereo in doubt) [Compound 753, (R,S)-1-[4-(4-tert-Butyl-phenylamino)-7-(3-trifluoromethyl-pyridin-2-yl)-quinazolin-2-ylmethyl]-4-hydroxy-pyrrolidine-2-carboxylic acid] displayed a Ki below 1 µM.
In turn, `CC(=O)OCc1nc(Nc2ccc(C(F)(F)F)cc2)c2ccc(-c3ncccc3C(F)(F)F)cc2n1` [Compound 9, Acetic acid 4-(4-trifluoromethyl-phenylamino)-7-(3-trifluoromethyl-pyridin-2-yl)-quinazolin-2-ylmethyl ester] came in with a Ki below 1 µM.
`FC(F)(F)c1ccc(Nc2nc(CCCOCc3ccccc3)nc3cc(-c4ncccc4C(F)(F)F)ccc23)cc1` [Compound 12, [2-(3-Benzyloxy-propyl)-7-(3-trifluoromethyl-pyridin-2-yl)-quinazolin-4-yl]-(4-trifluoromethyl-phenyl)-amine] showed a Ki below 1 µM.
Consider `FC(F)(F)c1ccc(Nc2nc(CCCOCc3ccccc3)nc3cc(-c4ncccc4C(F)(F)F)ccc23)cn1` [Compound 13, [2-(3-Benzyloxy-propyl)-7-(3-trifluoromethyl-pyridin-2-yl)-quinazolin-4-yl]-(6-trifluoromethyl-pyridin-3-yl)-amine], for which the Ki is below 1 µM.
Under `CC(C)(C)c1ccc(Nc2nc(CCCOCc3ccccc3)nc3cc(-c4ncccc4C(F)(F)F)ccc23)cn1` [Compound 15, [2-(3-Benzyloxy-propyl)-7-(3-trifluoromethyl-pyridin-2-yl)-quinazolin-4-yl]-(6-tert-butyl-pyridin-3-yl)-amine] stands below 1 µM; under `CC(C)(C)c1ccc(Nc2nc(CCCO)nc3cc(-c4ncccc4C(F)(F)F)ccc23)cn1` [Compound 16, 3-[4-(6-tert-Butyl-pyridin-3-ylamino)-7-(3-trifluoromethyl-pyridin-2-yl)-quinazolin-2-yl]-propan-1-ol], below 1 µM.
For the molecule `COC(=O)CCc1nc(Nc2ccc(C(F)(F)F)cc2)c2ccc(-c3ncccc3C(F)(F)F)cc2n1` [Compound 17, 3-[4-(4-Trifluoromethyl-phenylamino)-7-(3-trifluoromethyl-pyridin-2-yl)-quinazolin-2-yl]-propionic acid methyl ester], the Ki is below 1 µM.
In the case of `COC(=O)CCc1nc(Nc2ccc(C(F)(F)F)nc2)c2ccc(-c3ncccc3C(F)(F)F)cc2n1` [Compound 18, 3-[7-(3-Trifluoromethyl-pyridin-2-yl)-4-(6-trifluoromethyl-pyridin-3-ylamino)-quinazolin-2-yl]-propionic acid methyl ester], the inhibition constant (Ki) was below 1 µM.
Take `CCOC(=O)Cc1nc(Nc2ccc(C(F)(F)F)cc2)c2ccc(-c3ncccc3C(F)(F)F)cc2n1` [Compound 20, [4-(4-Trifluoromethyl-phenylamino)-7-(3-trifluoromethyl-pyridin-2-yl)-quinazolin-2-yl]-acetic acid ethyl ester]: the Ki was below 1 µM.
For `CC(=O)OCc1nc(Nc2ccc(C(F)(F)F)nc2)c2ccc(-c3ncccc3C(F)(F)F)cc2n1` [Compound 21, Acetic acid 7-(3-trifluoromethyl-pyridin-2-yl)-4-(6-trifluoromethyl-pyridin-3-ylamino)-quinazolin-2-ylmethyl ester], the inhibition constant (Ki) is below 1 µM.
`OCc1nc(Nc2ccc(C(F)(F)F)nc2)c2ccc(-c3ncccc3C(F)(F)F)cc2n1` [Compound 22, [7-(3-Trifluoromethyl-pyridin-2-yl)-4-(6-trifluoromethyl-pyridin-3-ylamino)-quinazolin-2-yl]-methanol] showed a Ki below 1 µM.
`CC(c1ccc(Nc2nc(COCc3ccccc3)nc3cc(-c4ncccc4C(F)(F)F)ccc23)cc1)C(F)(F)F` (stereo not drawn) [Compound 23, [2-Benzyloxymethyl-7-(3-trifluoromethyl-pyridin-2-yl)-quinazolin-4-yl]-[4-(2,2,2-trifluoro-1-methyl-ethyl)-phenyl]-amine] had a Ki below 1 µM.
Take `FC(F)(F)c1ccc(Nc2nc(COCc3ccccc3)nc3cc(-c4ncccc4C(F)(F)F)ccc23)cn1` [Compound 25, [2-Benzyloxymethyl-7-(3-trifluoromethyl-pyridin-2-yl)-quinazolin-4-yl]-(6-trifluoromethyl-pyridin-3-yl)-amine]: the Ki was below 1 µM.
Under `FC(F)(F)c1ccc(Nc2nc(COCc3ccccc3)nc3cc(-c4ncccc4C(F)(F)F)ccc23)nc1` [Compound 26, [2-Benzyloxymethyl-7-(3-trifluoromethyl-pyridin-2-yl)-quinazolin-4-yl]-(5-trifluoromethyl-pyridin-2-yl)-amine] stands below 1 µM; under `FC(F)(F)Oc1ccc(Nc2nc(COCc3ccccc3)nc3cc(-c4ncccc4C(F)(F)F)ccc23)cc1` [Compound 27, [2-Benzyloxymethyl-7-(3-trifluoromethyl-pyridin-2-yl)-quinazolin-4-yl]-(4-trifluoromethoxy-phenyl)-amine], below 1 µM; under `O=S(=O)(c1ccc(Nc2nc(COCc3ccccc3)nc3cc(-c4ncccc4C(F)(F)F)ccc23)cc1)C(F)(F)F` [Compound 28, [2-Benzyloxymethyl-7-(3-trifluoromethyl-pyridin-2-yl)-quinazolin-4-yl]-(4-trifluoromethanesulfonyl-phenyl)-amine], below 1 µM.
Molecule `CCN(CC)CCOCc1nc(Nc2ccc(C(F)(F)F)nc2)c2ccc(-c3ncccc3C(F)(F)F)cc2n1` [Compound 29, [2-(2-Diethylamino-ethoxymethyl)-7-(3-trifluoromethyl-pyridin-2-yl)-quinazolin-4-yl]-(6-trifluoromethyl-pyridin-3-yl)-amine] registered a Ki below 1 µM.
Turning to `FC(F)(F)c1ccc(Nc2nc(COCCN3CCCCC3)nc3cc(-c4ncccc4C(F)(F)F)ccc23)cn1` [Compound 30, [2-(2-Piperidin-1-yl-ethoxymethyl)-7-(3-trifluoromethyl-pyridin-2-yl)-quinazolin-4-yl]-(6-trifluoromethyl-pyridin-3-yl)-amine], the Ki is below 1 µM.
Consider `CN1CCC(OCc2nc(Nc3ccc(C(F)(F)F)nc3)c3ccc(-c4ncccc4C(F)(F)F)cc3n2)CC1` [Compound 31, [2-(1-Methyl-piperidin-4-yloxymethyl)-7-(3-trifluoromethyl-pyridin-2-yl)-quinazolin-4-yl]-(6-trifluoromethyl-pyridin-3-yl)-amine], for which the Ki is below 1 µM.
Consider `COCc1nc(Nc2ccc(S(C)(=O)=O)cc2)c2ccc(-c3ncccc3C(F)(F)F)cc2n1` [Compound 32, (4-Methanesulfonyl-phenyl)-[2-methoxymethyl-7-(3-trifluoromethyl-pyridin-2-yl)-quinazolin-4-yl]-amine], for which the Ki is below 1 µM.
For `COCc1nc(Nc2ccc(S(=O)(=O)C(F)(F)F)cc2)c2ccc(-c3ncccc3C(F)(F)F)cc2n1` [Compound 35, [2-Methoxymethyl-7-(3-trifluoromethyl-pyridin-2-yl)-quinazolin-4-yl]-(4-trifluoromethanesulfonyl-phenyl)-amine], the Ki was below 1 µM.
`COCc1nc(Nc2ccc(C(C)(C)COC)cc2)c2ccc(-c3ncccc3C(F)(F)F)cc2n1` [Compound 36, [4-(2-Methoxy-1,1-dimethyl-ethyl)-phenyl]-[2-methoxymethyl-7-(3-trifluoromethyl-pyridin-2-yl)-quinazolin-4-yl]-amine] gave a Ki below 1 µM.
For `COCc1nc(Nc2ccc(S(=O)(=O)NC(C)(C)C)cc2)c2ccc(-c3ncccc3C(F)(F)F)cc2n1` [Compound 37, N-tert-Butyl-4-[2-methoxymethyl-7-(3-trifluoromethyl-pyridin-2-yl)-quinazolin-4-ylamino]-benzenesulfonamide], the inhibitory constant (Ki) is below 1 µM.
`CC(C)(C)NS(=O)(=O)c1ccc(Nc2nc(COCc3ccccc3)nc3cc(-c4ncccc4C(F)(F)F)ccc23)cc1` [Compound 38, 4-[2-Benzyloxymethyl-7-(3-trifluoromethyl-pyridin-2-yl)-quinazolin-4-ylamino]-N-tert-butyl-benzenesulfonamide] displayed a Ki below 1 µM.
`CS(=O)(=O)c1ccc(Nc2nc(COCc3ccccc3)nc3cc(-c4ncccc4C(F)(F)F)ccc23)cc1` [Compound 40, [2-Benzyloxymethyl-7-(3-trifluoromethyl-pyridin-2-yl)-quinazolin-4-yl]-(4-methanesulfonyl-phenyl)-amine]: the Ki was below 1 µM.
With `CC(C)(C#N)c1ccc(Nc2nc(COCc3ccccc3)nc3cc(-c4ncccc4C(F)(F)F)ccc23)cc1` [Compound 41, 2-{4-[2-Benzyloxymethyl-7-(3-trifluoromethyl-pyridin-2-yl)-quinazolin-4-ylamino]-phenyl}-2-methyl-propionitrile] the figure was below 1 µM.
Under `COCC(C)(C)c1ccc(Nc2nc(COCc3ccccc3)nc3cc(-c4ncccc4C(F)(F)F)ccc23)cc1` [Compound 42, [2-Benzyloxymethyl-7-(3-trifluoromethyl-pyridin-2-yl)-quinazolin-4-yl]-[4-(2-methoxy-1,1-dimethyl-ethyl)-phenyl]-amine] stands below 1 µM.
`CC(C)(C)c1ccc(Nc2nc(COCc3ccccc3)nc3cc(-c4ncccc4C(F)(F)F)ccc23)cc1` [Compound 43, [2-Benzyloxymethyl-7-(3-trifluoromethyl-pyridin-2-yl)-quinazolin-4-yl]-(4-tert-butyl-phenyl)-amine] showed a Ki below 1 µM.
Regarding `CS(=O)(=O)N1CCc2cc(Nc3nc(COCc4ccccc4)nc4cc(-c5ncccc5C(F)(F)F)ccc34)ccc21` [Compound 44, [2-Benzyloxymethyl-7-(3-trifluoromethyl-pyridin-2-yl)-quinazolin-4-yl]-(1-methanesulfonyl-2,3-dihydro-1H-indol-5-yl)-amine], the Ki is below 1 µM.

As usually defined, the Ki is the equilibrium dissociation constant of an inhibitor or competing ligand from its target.
